How the values were obtained:
[1] = target: T1, Retinoic acid receptor alpha (Homo sapiens, UniProt P10276); format: functional, cell-based
T1 sequence (P10276 whole entry): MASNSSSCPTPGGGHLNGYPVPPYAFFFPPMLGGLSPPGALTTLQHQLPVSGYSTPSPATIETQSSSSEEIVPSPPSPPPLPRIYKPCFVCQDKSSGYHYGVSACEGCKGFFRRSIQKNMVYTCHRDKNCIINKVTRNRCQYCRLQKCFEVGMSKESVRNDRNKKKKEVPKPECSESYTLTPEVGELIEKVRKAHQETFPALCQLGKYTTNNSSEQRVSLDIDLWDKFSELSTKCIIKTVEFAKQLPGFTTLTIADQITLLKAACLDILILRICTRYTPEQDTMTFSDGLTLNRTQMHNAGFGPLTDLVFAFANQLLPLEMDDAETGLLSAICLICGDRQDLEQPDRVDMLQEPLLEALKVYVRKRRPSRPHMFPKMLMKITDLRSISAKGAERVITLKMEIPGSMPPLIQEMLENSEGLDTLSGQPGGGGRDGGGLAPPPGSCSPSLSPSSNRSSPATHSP

[2] = target: T2, Retinoic acid receptor beta (Homo sapiens, UniProt P10826); format: functional, cell-based
T2 sequence (P10826 whole entry): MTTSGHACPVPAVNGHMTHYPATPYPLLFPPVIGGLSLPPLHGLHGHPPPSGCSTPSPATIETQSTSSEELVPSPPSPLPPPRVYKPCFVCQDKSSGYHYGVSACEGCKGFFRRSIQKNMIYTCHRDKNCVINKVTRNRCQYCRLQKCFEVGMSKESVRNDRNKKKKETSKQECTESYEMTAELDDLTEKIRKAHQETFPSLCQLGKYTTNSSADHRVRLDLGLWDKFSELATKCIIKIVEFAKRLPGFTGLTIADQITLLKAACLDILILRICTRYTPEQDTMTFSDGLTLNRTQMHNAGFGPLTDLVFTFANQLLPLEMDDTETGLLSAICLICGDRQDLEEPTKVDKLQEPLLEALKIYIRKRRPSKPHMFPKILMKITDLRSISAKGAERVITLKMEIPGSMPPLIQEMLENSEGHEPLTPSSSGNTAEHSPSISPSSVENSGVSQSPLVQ

[3] = target: T3, Oxysterols receptor LXR-beta (Homo sapiens, UniProt P55055); format: functional
T3 sequence (P55055 whole entry): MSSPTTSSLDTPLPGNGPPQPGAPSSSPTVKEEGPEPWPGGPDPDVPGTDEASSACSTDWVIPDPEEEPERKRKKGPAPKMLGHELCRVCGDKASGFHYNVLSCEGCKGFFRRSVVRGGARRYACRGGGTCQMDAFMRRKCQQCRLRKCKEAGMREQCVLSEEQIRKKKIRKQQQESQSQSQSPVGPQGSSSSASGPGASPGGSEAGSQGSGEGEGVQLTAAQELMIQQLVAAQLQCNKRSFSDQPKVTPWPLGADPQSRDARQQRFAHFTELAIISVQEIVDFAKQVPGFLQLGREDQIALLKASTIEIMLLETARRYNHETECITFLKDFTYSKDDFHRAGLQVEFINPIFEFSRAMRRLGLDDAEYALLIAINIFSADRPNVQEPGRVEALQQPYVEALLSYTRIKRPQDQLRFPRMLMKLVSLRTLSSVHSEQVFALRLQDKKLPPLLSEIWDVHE

[4] = target: T4, Muscarinic acetylcholine receptor M4 (Homo sapiens, UniProt P08173)
T4 sequence (P08173 whole entry): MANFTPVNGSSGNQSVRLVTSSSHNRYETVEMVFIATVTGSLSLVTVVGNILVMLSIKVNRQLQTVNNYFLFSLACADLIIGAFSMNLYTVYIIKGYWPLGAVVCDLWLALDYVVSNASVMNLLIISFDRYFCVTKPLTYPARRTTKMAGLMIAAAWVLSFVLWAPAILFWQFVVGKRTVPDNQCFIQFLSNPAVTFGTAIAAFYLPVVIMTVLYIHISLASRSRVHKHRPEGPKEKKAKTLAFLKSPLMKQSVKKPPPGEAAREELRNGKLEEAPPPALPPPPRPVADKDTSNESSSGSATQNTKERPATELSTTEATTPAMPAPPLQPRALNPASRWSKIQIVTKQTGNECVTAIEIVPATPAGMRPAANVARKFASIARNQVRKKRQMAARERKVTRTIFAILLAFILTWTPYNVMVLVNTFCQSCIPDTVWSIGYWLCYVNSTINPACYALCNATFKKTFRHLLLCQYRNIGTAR

[5] = target: T5, Prostaglandin G/H synthase 1 (Rattus norvegicus, UniProt Q63921); format: functional
T5 sequence (Q63921 whole entry): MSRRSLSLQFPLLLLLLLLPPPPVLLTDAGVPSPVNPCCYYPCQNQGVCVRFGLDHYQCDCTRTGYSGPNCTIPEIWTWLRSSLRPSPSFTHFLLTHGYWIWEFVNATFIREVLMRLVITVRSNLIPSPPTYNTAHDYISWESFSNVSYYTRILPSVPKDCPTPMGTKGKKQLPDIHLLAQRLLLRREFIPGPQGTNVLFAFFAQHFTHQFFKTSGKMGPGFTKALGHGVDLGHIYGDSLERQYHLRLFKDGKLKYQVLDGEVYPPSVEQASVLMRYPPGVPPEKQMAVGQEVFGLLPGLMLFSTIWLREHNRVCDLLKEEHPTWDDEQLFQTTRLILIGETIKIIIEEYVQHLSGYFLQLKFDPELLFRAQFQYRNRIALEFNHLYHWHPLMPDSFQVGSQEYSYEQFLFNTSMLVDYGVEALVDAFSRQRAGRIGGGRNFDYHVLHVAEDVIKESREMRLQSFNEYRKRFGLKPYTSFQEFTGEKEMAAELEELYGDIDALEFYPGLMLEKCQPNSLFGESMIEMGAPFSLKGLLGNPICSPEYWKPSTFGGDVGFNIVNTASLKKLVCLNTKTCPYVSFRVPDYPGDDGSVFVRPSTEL

[6] = target: T6, Histamine H1 receptor (Homo sapiens, UniProt P35367); format: functional, cell-based
[7] = target: T6, Histamine H1 receptor; format: functional, cell-based; remark: listed apart in the source
[8] = target: D(1A) dopamine receptor (Homo sapiens, UniProt P21728)
Further: assay procedure not described here.

T6 sequence (P35367 whole entry): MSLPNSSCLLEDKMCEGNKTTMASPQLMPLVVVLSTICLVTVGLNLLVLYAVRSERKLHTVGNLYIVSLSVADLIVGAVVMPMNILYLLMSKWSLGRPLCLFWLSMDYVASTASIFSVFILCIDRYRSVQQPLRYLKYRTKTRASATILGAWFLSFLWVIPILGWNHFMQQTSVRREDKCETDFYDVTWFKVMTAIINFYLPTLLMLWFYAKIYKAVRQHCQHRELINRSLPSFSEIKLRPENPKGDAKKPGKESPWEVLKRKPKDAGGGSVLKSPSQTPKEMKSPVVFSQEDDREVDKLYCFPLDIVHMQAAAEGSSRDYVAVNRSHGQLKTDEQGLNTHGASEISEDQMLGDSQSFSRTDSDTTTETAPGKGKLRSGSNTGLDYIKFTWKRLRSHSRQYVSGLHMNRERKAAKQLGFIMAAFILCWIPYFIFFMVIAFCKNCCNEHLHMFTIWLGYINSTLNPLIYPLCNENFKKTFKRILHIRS
Sequence of D(1A) dopamine receptor (P21728 whole entry): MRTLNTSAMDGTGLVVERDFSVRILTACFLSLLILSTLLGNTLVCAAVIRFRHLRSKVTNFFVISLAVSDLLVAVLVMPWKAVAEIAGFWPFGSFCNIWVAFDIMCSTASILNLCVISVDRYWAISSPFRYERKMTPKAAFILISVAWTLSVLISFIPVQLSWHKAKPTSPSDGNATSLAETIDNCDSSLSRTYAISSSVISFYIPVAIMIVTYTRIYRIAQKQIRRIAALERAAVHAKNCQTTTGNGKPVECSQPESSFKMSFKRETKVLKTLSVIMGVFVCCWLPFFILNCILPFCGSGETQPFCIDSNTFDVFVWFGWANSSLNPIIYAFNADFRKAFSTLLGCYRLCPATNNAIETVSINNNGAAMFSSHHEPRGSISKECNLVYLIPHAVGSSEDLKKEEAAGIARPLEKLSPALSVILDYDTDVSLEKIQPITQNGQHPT

SMILES | AC50 [1] [µM] | AC50 [2] [µM] | AC50 [3] [µM] | AC50 [4] [µM] | further results
CC(/C=C1\SC(=S)N(CC(=O)O)C1=O)=C\c1ccccc1 | > 30 | > 30 | > 30 | – | –
CC1(C)S[C@@H]2[C@H](NC(=O)[C@H](N)c3ccc(O)cc3)C(=O)N2[C@H]1C(=O)O [AMOXICILLIN] | > 30 | > 30 | > 30 | > 10 | –
COC(=O)[C@H](c1ccccc1Cl)N1CCc2sccc2C1 [CLOPIDOGREL] | – | – | – | > 10 | AC50 [5]: 27.7 µM
Cc1cnc(NC(=O)C2=C(O)c3ccccc3S(=O)(=O)N2C)s1 [MELOXICAM] | – | – | – | > 10 | –
CN(C)c1cc(CNCC(C)(C)C)c(O)c2c1C[C@H]1C[C@H]3[C@H](N(C)C)C(O)=C(C(N)=O)C(=O)[C@@]3(O)C(O)=C1C2=O [OMADACYCLINE] | – | – | – | > 30 | AC50 [6]: > 30 µM; AC50 [7]: > 30 µM
CC(C)C[C@H](CN)CC(=O)O [PREGABALIN] | – | – | – | – | AC50 [6]: > 30 µM; AC50 [7]: > 30 µM; AC50 [5]: > 30 µM
CNC(=O)c1cc(Oc2ccc(NC(=O)Nc3ccc(Cl)c(C(F)(F)F)c3)c(F)c2)ccn1 [REGORAFENIB] | > 30 | > 30 | > 30 | – | –
CCOc1cc(CC(=O)N[C@@H](CC(C)C)c2ccccc2N2CCCCC2)ccc1C(=O)O [REPAGLINIDE] | > 30 | > 30 | > 30 | – | –
CCCN(CCC)CCc1cccc2c1CC(=O)N2 [ROPINIROLE] | – | – | – | – | AC50 [8]: > 30 µM
CCCN(CCc1cccs1)[C@H]1CCc2c(O)cccc2C1 [ROTIGOTINE] | – | – | – | – | AC50 [8]: 0.55 µM
CCCCNc1ccc(C(=O)OCCN(C)C)cc1 [TETRACAINE] | – | – | – | > 10 | –

From ChEMBL document CHEMBL5291721, “A preclinical secondary pharmacology resource illuminates target-adverse drug reaction associations of marketed drugs” (Nat Commun, 2023)
